Measured values reported in PubChem BioAssay (NCI).
Values joined by “and” are separate entries in the source; they are usually repeats but may differ in a detail not shown here. Identical values can stand only once.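 Test compounds were applied to cells in 96-well plates for 48 hours at 5 doses. Here, GI50 denotes the concentration required for 50% inhibition of growth. TGI: total growth inhibition.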

What follows are molecules tested on MDA-MB-468 breast (assay: NCI-60 cell line screen, 48 h).

With O=C(COc1ccc(/C=C2\CSc3ccccc3C2=O)cc1)Nc1nccs1 as the molecule, how does the GI50 read?
Its GI50 is 1840 nM.

And the TGI?
Its TGI is 4000 nM.

What does the source list for COc1cc2c(c(OC)n1)[C@]1(O)[C@H](O)[C@H](CN(C)C)[C@@H](c3ccccc3)[C@]1(c1ccc(C#N)cc1)O2?
GI50: < 15.7 nM and 15.8 nM; TGI: 482 nM and 1440 nM

For COc1cc2ncn(-c3cc(OCCc4ccccc4)c(C(N)=O)s3)c2cc1OC, which GI50 is on record?
Its GI50 is 3350 nM.

What about the TGI of the same molecule?
Its TGI is 24200 nM.

What does the source list for C=C1C(=O)O[C@H]2[C@H]1CC/C(COC(=O)c1ccc(Cl)nc1)=C\CC[C@@]1(C)O[C@@H]21?
GI50: 1210 nM; TGI: 3500 nM

How did the GI50 turn out when COCCOc1cnc2ccn([C@H](C)c3nnc4c(F)cc(-c5cnn(C)c5)cn34)c(=O)c2c1 was run?
The GI50 was > 100000 nM.

And the TGI?
Its TGI is > 100000 nM.

Which results are given for CN1CCN(c2ccc(Nc3nc(NCCCNS(=O)(=O)c4ccc(Cl)cc4)c4sccc4n3)cc2)CC1?
GI50: 4030 nM; TGI: 16300 nM

What does the source list for CCC(C)(C)c1ccc(OCCCCCCN2CCNCC2)cc1?
GI50: 1760 nM; TGI: 3470 nM

Which GI50 does the source give for O=[N+]([O-])c1ccc2c(c1)C(c1ccccc1Cl)=Nc1cn[nH]c1N2 here?
The GI50 was 12500 nM.

And the TGI?
Its TGI is > 25000 nM.

With COc1ccc2c(c1)C(C)Cc1c(ncnc1-n1c(C)nc3ccccc31)N2C (stereo unspecified) as the molecule, how does the GI50 read?
The GI50 was 3050 nM.

And the TGI?
The TGI was 20500 nM.

What does the source list for CCc1ccccc1NC(=O)c1sc2nc3c(cc2c1N)C(=O)CCC3?
GI50: 235 nM; TGI: 44700 nM

Cc1ccc(S(=O)(=O)NCCNc2nccc(-c3c(-c4ccc(F)cc4)nc4sccn34)n2)cc1 was tested. Which GI50 did it give?
Its GI50 is 4200 nM.

And the TGI?
Its TGI is > 100000 nM.

With Cc1cc[c-]cc1.Fc1c[c-]c(-c2ccccn2)c(F)c1.[Pt+2].c1ccc(P(C[PH+](c2ccccc2)c2ccccc2)c2ccccc2)cc1 as the molecule, how does the GI50 read?
The GI50 was 1550 nM.

What about the TGI of the same molecule?
Its TGI is 5550 nM.

Which GI50 does the source give for COc1cc2c3c(n(CCCN4CCC[C@H]4C(N)=O)c(=O)c2cc1OC)-c1cc2c(cc1C3=O)OCO2 here?
The GI50 was 45.6 nM.

And the TGI?
The TGI was 316 nM.

What does the source list for O=C(Nc1ccc(Br)cc1)c1ccc(Cl)c(Cl)c1?
GI50: 7500 nM; TGI: > 100000 nM

For Nc1nc(SN=Nc2ccc(S(N)(=O)=O)cc2)c2[nH]cnc2n1, which GI50 is on record?
Its GI50 is 284 nM.

And the TGI?
Its TGI is 4110 nM.

CC(=O)O[C@H](C[C@H](C(C)C)N(C)C(=O)[C@@H](NC(=O)[C@H]1CCCCN1C)C(C)C)c1nc(C(=O)N[C@@H](Cc2ccccc2)C[C@H](C)C(=O)O)c(CCOCc2ccccc2)s1 was tested. Which GI50 did it give?
Its GI50 is < 1 nM.

And the TGI?
The TGI was > 10000 nM.

With O=C(O)c1ccc(-n2c(=O)n(-c3cccc(C(F)(F)F)c3)c(=O)c3cc(-c4ccc(F)cc4F)ccc32)cc1 as the molecule, how does the GI50 read?
The GI50 was 2160 nM.

And the TGI?
Its TGI is 5940 nM.

Which results are given for Cn1cc(C2=C(c3cn(CCCCCN)c4ccccc34)C(=O)NC2=O)c2ccccc21?
GI50: 7540 nM; TGI: > 25000 nM

With COc1cc(C2=C(c3cn(C)c4ccccc34)COC2=O)cc(OC)c1OC as the molecule, how does the GI50 read?
The GI50 was 31.9 nM.

What about the TGI of the same molecule?
Its TGI is 380 nM.

How did the GI50 turn out when C[C@]12CC[C@@H]3c4ccc(O)cc4CC[C@H]3[C@@H]1CC[C@@H]2NS(=O)(=O)c1cccc(F)c1 was run?
The GI50 was 2420 nM.

And the TGI?
Its TGI is 9250 nM.

What does the source list for CCn1c(CO)nn(-c2cc(O[C@@H](C)C(F)(F)F)c(C(=O)Nc3c(F)cccc3Cl)cc2F)c1=O?
GI50: 3280 nM; TGI: > 72300 nM

With NC(CS/C(Cl)=C/Cl)C(=O)O (stereo unspecified) as the molecule, how does the GI50 read?
The GI50 was 2990 nM.

And the TGI?
The TGI was 16700 nM.

What does the source list for CN(CCCNC(=O)Cc1ccc2ccc3cccc4ccc1c2c34)CCCNc1cc(-c2ccc3ccccc3c2)nc2ccccc12?
GI50: 1420 nM; TGI: 2750 nM

With CC(C)S(=O)(=O)c1ccccc1Nc1nc(Nc2cccc(NC(=O)CN)c2)ncc1Cl as the molecule, how does the GI50 read?
Its GI50 is 99.9 nM.

What about the TGI of the same molecule?
The TGI was 1860 nM.

Which results are given for NC(N)=NCCCCCNc1noc(Cc2c[nH]c3cc(Br)ccc23)n1?
GI50: 2010 nM; TGI: 7040 nM

Which results are given for COc1cc(OC)c(S(N)(=O)=O)cc1C(=O)/C=C/c1ccc(Cl)cc1?
GI50: 1450 nM; TGI: 3080 nM

O=C(Nc1ccc(-n2cc(-c3ccncc3)c(-c3ccc(Cl)c(O)c3)n2)cc1)Nc1ccc(Cl)c(C(F)(F)F)c1 was tested. Which GI50 did it give?
Its GI50 is 1460 nM.

And the TGI?
The TGI was 3400 nM.

CC(C)N=c1cc2n(-c3ccc(Cl)cc3)c3ccccc3nc-2cc1Nc1ccc(Cl)cc1 was tested. Which GI50 did it give?
Its GI50 is 560 nM.

What about the TGI of the same molecule?
The TGI was 1670 nM.

Which GI50 does the source give for Cc1cc(N/N=C/c2nc(-c3ccc(Br)cc3)oc2C)c2cc(Br)ccc2n1 here?
Its GI50 is 1750 nM.

What about the TGI of the same molecule?
The TGI was 4850 nM.

Which results are given for O=C(/C=C/c1cc(CN2CCOCC2)c(O)c2ncccc12)c1cc(CN2CCOCC2)c(O)c2ncccc12?
GI50: 34.6 nM; TGI: 683 nM

COc1ccc(-c2oc3cc(O)c(OC)c(O)c3c(=O)c2OC)cc1O was tested. Which GI50 did it give?
Its GI50 is 312 nM.

What about the TGI of the same molecule?
The TGI was 4140 nM.

For COc1ccc2ncn(-c3cc(O[C@H](C)c4ccccc4Cl)c(C(N)=O)s3)c2c1, which GI50 is on record?
The GI50 was 6.67 nM.

And the TGI?
Its TGI is 40 nM.

C[C@]12CCc3nc(Nc4ccccc4)sc3C1=CC[C@@H]1[C@@H]2CC[C@]2(C)/C(=N/NC(N)=S)CC[C@@H]12 was tested. Which GI50 did it give?
Its GI50 is 1870 nM.

And the TGI?
Its TGI is 5380 nM.
